A word on the IC50: it is the concentration that inhibits the measured activity by half. As a reminder, the EC50 is the concentration needed to bring the measured effect to its halfway point. The low end stands for greater potency, the high end for weaker potency.

The text below walks through data of patent US9650339B2, “Inhibitors of histone demethylases” (Gilead Sciences, Inc., priority 2013, dated 2017).

For one experiment, the target named is T1, KDM2B (FBXL10) (Homo sapiens, UniProt Q8NHM5).
T1 sequence (Q8NHM5 1-650): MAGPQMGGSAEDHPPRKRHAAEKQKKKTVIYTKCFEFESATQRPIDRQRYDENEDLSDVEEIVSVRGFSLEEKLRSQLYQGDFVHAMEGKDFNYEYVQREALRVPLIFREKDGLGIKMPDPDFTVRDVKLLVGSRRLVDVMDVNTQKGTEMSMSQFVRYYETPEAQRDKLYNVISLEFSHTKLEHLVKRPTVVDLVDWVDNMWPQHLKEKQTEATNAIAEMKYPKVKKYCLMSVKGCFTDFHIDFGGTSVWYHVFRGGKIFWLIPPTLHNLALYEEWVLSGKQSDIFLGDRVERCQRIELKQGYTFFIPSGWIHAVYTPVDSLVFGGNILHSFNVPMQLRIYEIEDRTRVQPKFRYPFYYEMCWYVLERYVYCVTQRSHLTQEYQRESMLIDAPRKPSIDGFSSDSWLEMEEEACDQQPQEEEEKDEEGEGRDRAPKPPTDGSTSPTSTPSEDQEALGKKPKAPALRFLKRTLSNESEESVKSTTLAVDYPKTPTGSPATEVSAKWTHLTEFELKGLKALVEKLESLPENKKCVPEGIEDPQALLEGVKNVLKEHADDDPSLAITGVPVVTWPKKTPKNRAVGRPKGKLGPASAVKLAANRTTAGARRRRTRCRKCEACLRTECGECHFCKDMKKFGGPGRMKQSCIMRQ
Description: Histone lysine demethylase AlphaLISA assay, KDM2B. The class given is biochemical. Particulars: read-out: KDM2B HDME Inhibition IC50. The procedure:
(§1) Assays are performed analogously to the protocol described by PerkinElmer (Roy et al. PerkinElmer Technical Note: AlphaLISA #12, April 2011)
(§2) Enzymes are dissolved in enzyme buffer and incubated for 10 min before being added to 3% DMSO solutions of compounds in enzyme buffer. Incubated for another 10 minutes, before substrate solution is added and the reaction mixture is incubated at room temperature. 10 μL acceptor beads, suspended in Epigenetic Buffer (Perkin Elmer AL008) from stock, are added and the suspension is incubated in the dark at room temperature, before a suspension of streptavidin donor beads (Perkin Elmer 6760002) in Epigenetic Buffer is added. After incubation at room temperature in the dark the plates are read. […]
BH3K36M2: RKAAPATGGVK(Me2)KPHRYRPGTVK-(BIOTIN)? (Anaspec)
(§3) Substrate Solution: Substrate, 25 μM L-Asc, and 10 μM α-KG in Buffer A.

The next experiment addresses T2, KDM4C (JMJD2C) (Homo sapiens, UniProt Q9H3R0).
T2 sequence (Q9H3R0 1-349): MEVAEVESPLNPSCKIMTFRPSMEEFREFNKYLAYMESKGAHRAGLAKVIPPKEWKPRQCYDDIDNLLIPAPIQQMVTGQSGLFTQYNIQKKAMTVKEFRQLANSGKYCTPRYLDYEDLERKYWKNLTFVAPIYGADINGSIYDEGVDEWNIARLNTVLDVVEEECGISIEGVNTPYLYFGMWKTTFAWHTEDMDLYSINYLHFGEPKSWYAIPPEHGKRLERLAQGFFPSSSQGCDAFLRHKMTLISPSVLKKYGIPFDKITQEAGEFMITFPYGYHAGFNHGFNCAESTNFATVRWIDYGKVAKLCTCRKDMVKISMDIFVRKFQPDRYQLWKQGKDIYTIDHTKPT
Description: Histone lysine demethylase AlphaLISA assay, KDM4C. The experiment is classed as biochemical. Particulars: read-out: KDM4C HDME Inhibition IC50. The method, then:
as §1
Enzymes are dissolved in enzyme buffer and incubated for 10 min before being added to 3% DMSO solutions of compounds in enzyme buffer. Incubated for another 10 minutes, before substrate solution is added and the reaction mixture is incubated at room temperature. 10 μL acceptor beads, suspended in Epigenetic Buffer (Perkin Elmer AL008) from stock, are added and the suspension is incubated in the dark at room temperature, before a suspension of streptavidin donor beads (Perkin Elmer 6760002) in Epigenetic Buffer is added. After incubation at room temperature in the dark the plates are read.
BK9M3: Biotin-ARTKQTAR(KMe3)STGGKAPRKQ-NH2 (Caslo, Denmark) […]
as §3
On the technique in general: Bead proximity is the source of the signal in Alpha formats.

Another experiment has as its target T3, KDM5B (PLU-1) (Homo sapiens, UniProt Q9UGL1).
T3 sequence (Q9UGL1 1-809): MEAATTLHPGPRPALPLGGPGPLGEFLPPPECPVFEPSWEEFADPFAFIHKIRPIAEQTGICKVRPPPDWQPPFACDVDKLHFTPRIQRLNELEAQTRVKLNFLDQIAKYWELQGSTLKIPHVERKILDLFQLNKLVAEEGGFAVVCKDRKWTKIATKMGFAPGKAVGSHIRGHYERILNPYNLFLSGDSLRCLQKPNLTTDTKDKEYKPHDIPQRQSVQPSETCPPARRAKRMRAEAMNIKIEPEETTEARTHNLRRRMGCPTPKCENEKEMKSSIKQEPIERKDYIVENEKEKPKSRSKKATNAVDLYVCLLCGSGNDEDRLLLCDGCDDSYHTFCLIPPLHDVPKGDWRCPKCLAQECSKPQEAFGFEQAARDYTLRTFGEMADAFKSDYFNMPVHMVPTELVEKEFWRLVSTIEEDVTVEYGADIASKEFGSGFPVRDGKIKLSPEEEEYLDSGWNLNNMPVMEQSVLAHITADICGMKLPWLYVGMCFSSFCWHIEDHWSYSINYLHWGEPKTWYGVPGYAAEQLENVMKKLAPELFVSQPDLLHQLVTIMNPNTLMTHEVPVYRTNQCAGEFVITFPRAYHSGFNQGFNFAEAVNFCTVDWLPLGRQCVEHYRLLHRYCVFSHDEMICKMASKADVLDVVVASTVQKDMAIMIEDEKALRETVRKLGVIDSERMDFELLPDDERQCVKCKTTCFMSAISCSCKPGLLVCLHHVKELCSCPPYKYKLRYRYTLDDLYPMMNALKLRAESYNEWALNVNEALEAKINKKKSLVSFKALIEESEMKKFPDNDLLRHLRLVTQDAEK
Description: Histone lysine demethylase AlphaLISA assay, KDM5B. The class given is biochemical. The conditions noted are these: read-out: KDM5B HDME Inhibition IC50. The procedure: as §1, §2
H3K4M3B: H-ART(Kme3)QTARKSTGGKAPRKQLA-NH-Biotin (Caslo, Denmark) […]
as §3

The next experiment concerns the target KDM6A (UTX) (Homo sapiens, UniProt O15550). Description: Histone lysine demethylase AlphaLISA assay, KDM6A. The experiment is classed as biochemical. Particulars: read-out: KDM6A HDME Inhibition IC50. The method, then:
as §1, §2
BK27M3: Biotin-ATKAAR(Kme3)SAPATGGVKKPHRY-NH2? (Caslo, Denmark) […]
as §3

The next experiment concerns H3K4me3 mark. Nature of the experiment: Histone lysine demethylase immunofluorescence assay, non-transfected U2OS cells. The class given is cell-based. The conditions noted are these: Homo sapiens, staining of the H3K4me3 mark, 20 hours incubation with compound. The procedure:
U2OS cells were harvested and seeded into multi well plates into media containing compound. The media used was DMEM containing 5% FBS and pen/strep. 20 hours after incubation of cells with compounds, the cells were washed once in PBS, harvested by fixation with formaldehyde 4% aqueous solution, and washed in PBS. Subsequently, the cells were permeabilized in PBS with 0.2% Triton X-100. Blocking was performed in PBS with 0.2% Triton X-100 and 5% FBS. The cells were incubated with αH3K4me3 primary antibody (Cell Signaling, #9751S) in blocking solution over night at 4° C. After incubation with primary antibody, the cells were washed with PBS, incubated with secondary antibody (Alexa fluor 594 goat anti rabbit IgG, Invitrogen, A11012) and Hoechst, (Sigma, 33342) in blocking solution, and washed again with PBS. Finally, PBS was added and high throughput imaging and analysis were performed by an IN Cell Analyzer 1000 (GE Healthcare). The IC50 values were based on an average measure of the staining of the H3K4me3 mark in cells.

In another experiment the test system is MCF7 cells. Nature of the experiment: Cell proliferation assay MCF7. The experiment is classed as cell-based. The conditions noted are these: MCF7 human breast cancer cells; 120 hours; ATPlite 1 Step. The method, then:
MCF7 cells were seeded in multi well plates at a density optimized to give approximately 90% confluent cells at the time of harvest. Cells were incubated for 24 hours before addition of compound. Compounds were diluted in complete medium and added to the plates in duplicates. The final concentration of DMSO was maximum 0.5%. Complete medium used was DMEM with GlutaMAX containing 10% FBS and pen/strep.
120 hours after addition of compounds, the plates were harvested and analyzed by ATPlite 1 Step (Perkin Elmer, cat no 6016739) according to the manufactures recommendation.

The target of the next experiment is T4, KDM7 (PHF8) (Homo sapiens, UniProt Q9UPP1).
T4 construct: KDM7 (PHF8); BRIC; 1-1322; Bac
T4 sequence (Q9UPP1 37-440 limits assumed): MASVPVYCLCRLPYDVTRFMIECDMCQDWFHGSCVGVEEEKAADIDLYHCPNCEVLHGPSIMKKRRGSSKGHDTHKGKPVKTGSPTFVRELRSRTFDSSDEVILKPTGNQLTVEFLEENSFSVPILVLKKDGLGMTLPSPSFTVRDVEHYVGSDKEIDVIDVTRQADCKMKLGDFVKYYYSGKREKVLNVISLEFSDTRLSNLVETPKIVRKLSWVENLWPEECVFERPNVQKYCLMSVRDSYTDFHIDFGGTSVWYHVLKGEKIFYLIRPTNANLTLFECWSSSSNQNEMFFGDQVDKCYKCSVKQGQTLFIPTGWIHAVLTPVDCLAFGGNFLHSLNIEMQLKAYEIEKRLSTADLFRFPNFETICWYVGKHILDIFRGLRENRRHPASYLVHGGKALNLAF
Nature of the experiment: Histone lysine demethylase AlphaLISA assay, KDM7. The class given is biochemical. The conditions noted are these: read-out: PHF8 HDME Inhibition IC50. The procedure:
as §1, §2
BK9M2: Biotin-ARTKQTAR(KMe2)STGGKAPRKQ-NH2 (AnaSpec 64359)
BK9M1: Biotin-ARTKQTAR(KMe1)STGGKAPRKQ-NH2 (AnaSpec 64358) […]
as §3

Chain of KDM6A (UTX) (O15550 919-1401): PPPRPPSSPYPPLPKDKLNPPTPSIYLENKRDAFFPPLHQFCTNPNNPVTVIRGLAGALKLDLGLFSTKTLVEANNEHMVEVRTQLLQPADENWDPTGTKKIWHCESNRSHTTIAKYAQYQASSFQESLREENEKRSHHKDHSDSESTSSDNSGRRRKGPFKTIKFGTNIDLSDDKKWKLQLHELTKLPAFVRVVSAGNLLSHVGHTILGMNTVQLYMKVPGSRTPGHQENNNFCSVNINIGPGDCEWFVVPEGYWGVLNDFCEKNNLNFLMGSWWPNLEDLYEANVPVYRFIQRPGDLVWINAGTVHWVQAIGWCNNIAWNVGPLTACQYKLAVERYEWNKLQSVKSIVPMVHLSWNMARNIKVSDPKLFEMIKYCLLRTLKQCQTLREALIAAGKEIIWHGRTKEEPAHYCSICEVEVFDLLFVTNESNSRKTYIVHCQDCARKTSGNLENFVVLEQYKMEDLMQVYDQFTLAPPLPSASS

For the compound `CCN(CCN1CCC1)C(=O)CNCc1cc(CNC(=O)C(F)(F)F)ccn1` [Compound 30, N-[(2-{[({[2-(azetidin-1-yl)ethyl](ethyl)-carbamoyl}-methyl)amino]methyl}-pyridin-4-yl)methyl]-2,2,2-trifluoroacetamide], the IC50 on KDM2B (FBXL10) is greater than 2500 nM; on KDM4C (JMJD2C) it was greater than 2500 nM; at KDM5B (PLU-1), 250 to 2500 nM; on KDM6A (UTX), greater than 2500 nM; with H3K4me3 mark it was less than 250 nM. In addition, the EC50 in the experiment with MCF7 cells was less than 250 nM.

`CCN(CC1CCCN1C)C(=O)CNCc1cc(/C=N/CCO)ccn1` (stereo not drawn) [Compound 79, N-ethyl-2-[({4-[[(2-hydroxyethyl)imino]-methyl]pyridin-2-yl}methyl)amino]-N-[(1-methylpyrrolidin-2-yl)-methyl]acetamide]: the IC50 at KDM2B (FBXL10) is greater than 2500 nM; on KDM4C (JMJD2C) it was 250 to 2500 nM; at KDM5B (PLU-1), less than 250 nM; in the experiment with H3K4me3 mark, less than 250 nM. Further, in the experiment on MCF7 cells, the EC50 was less than 250 nM.

Turning to `CCN(CCN(C)C)C(=O)CNCc1cc(CNC(=O)C(F)(F)CC)ccn1` [Compound 32, N-[(2-{[({[2-(dimethylamino)-ethyl](ethyl)-carbamoyl}methyl)-amino]methyl}pyridin-4-yl)methyl]-2,2-difluorobutanamide], the IC50 was greater than 2500 nM on KDM2B (FBXL10); greater than 2500 nM on KDM4C (JMJD2C); less than 250 nM at KDM5B (PLU-1); greater than 2500 nM at KDM6A (UTX); greater than 2500 nM in the experiment on H3K4me3 mark. The compound further came in with an EC50 in the experiment with MCF7 cells greater than 2500 nM.

Turning to `CCN(CC)CCCCNCc1cc(CNC(=O)C(=O)O)ccn1` [Compound 27, ({[2-({[4-(diethylamino)-butyl]amino}methyl)pyridin-4-yl]methyl}carbamoyl)-formic acid], the IC50 at KDM2B (FBXL10) is greater than 2500 nM; at KDM4C (JMJD2C) it was greater than 2500 nM; on KDM5B (PLU-1), less than 250 nM; at KDM6A (UTX) it was greater than 2500 nM; on KDM7 (PHF8), greater than 2500 nM; with H3K4me3 mark, less than 250 nM. In the experiment with MCF7 cells, the EC50 lay within 250 to 2500 nM.

As to `CCN(CC)CCCCNCc1cc(/C=N/CC2(CO)CC2)ccn1` [Compound 77, (1-{[{[2-({[4-(diethylamino)-butyl]amino}-methyl)pyridin-4-yl]-methylidene}amino]-methyl}cyclopropyl)-methanol], the 50% inhibitory concentration (IC50) on KDM2B (FBXL10) was greater than 2500 nM; on KDM4C (JMJD2C) it was greater than 2500 nM; on KDM5B (PLU-1), 250 to 2500 nM; with H3K4me3 mark, less than 250 nM. The compound also came in with an EC50 with MCF7 cells of less than 250 nM.

Regarding `CCN(CCCN(C)C)C(=O)CNCc1cc(/C=N/CCO)ccn1` [Compound 82, N-[3-(dimethylamino)propyl]-N-ethyl-2-[({4-[[(2-hydroxyethyl)imino]-methyl]pyridin-2-yl}methyl)amino]-acetamide], the IC50 at KDM2B (FBXL10) was greater than 2500 nM; at KDM4C (JMJD2C) it was greater than 2500 nM; at KDM5B (PLU-1), greater than 2500 nM; on KDM6A (UTX) it was greater than 2500 nM; in the experiment with H3K4me3 mark, less than 250 nM. Besides, in the experiment with MCF7 cells, the EC50 was less than 250 nM.

`CCN(CCN(C)C)C(=O)CNCc1cc(/C=N/CC2(CO)CC2)ccn1` [Compound 88, N-[2-(dimethylamino)-ethyl]-N-ethyl-2-[({4-[({[1-(hydroxymethyl)cyclopropyl]methyl}imino)methyl]pyridin-2-yl}methyl)amino] acetamide]: the IC50 on KDM2B (FBXL10) was greater than 2500 nM; on KDM4C (JMJD2C), 250 to 2500 nM; on KDM5B (PLU-1), less than 250 nM; on KDM6A (UTX) it was greater than 2500 nM; on KDM7 (PHF8), greater than 2500 nM; in the experiment on H3K4me3 mark, less than 250 nM. The same compound displayed a concentration for a half-maximal effect (EC50) in the experiment with MCF7 cells of less than 250 nM.

`CCN(C[C@@H]1CCC[C@@H]1N(C)C)C(=O)CNCc1cc(/C=N/CCO)ccn1` [Compound 85, N-{[(1S,2S)-2-(dimethylamino)-cyclopentyl]methyl}-N-ethyl-2-[({4-[[(2-hydroxyethyl)imino]-methyl]pyridin-2-yl}methyl)amino] acetamide-]: the IC50 was greater than 2500 nM at KDM2B (FBXL10); less than 250 nM on KDM4C (JMJD2C); less than 250 nM on KDM5B (PLU-1); greater than 2500 nM at KDM6A (UTX); less than 250 nM with H3K4me3 mark. In the experiment on MCF7 cells, this compound displayed an EC50 of 250 to 2500 nM.
